What was measured:
VIM-2 = VIM-2 (Escherichia coli, UniProt Q5U7L7); assay: Enzyme activity: determination of IC50 (VIM-2); assay type: biochemical; conditions: read-out: VIM2 IC50
IMP-1 = IMP-1 (Serratia marcescens, UniProt P52699); assay: Enzyme activity: determination of IC50, fluorescence assay with CCF2-FA substrate (IMP-1); assay type: biochemical; conditions: 2 pM enzyme, 1.25 μM CCF2-FA, 2 hours at 25° C.; read-out: IMP1 IC50
Protocol: (§1) The Class B enzyme activities were measured in the presence of the test inhibitor in a fluorescence assay against a commercially available substrate consisting of a cephalosporin core linking 7-hydroxycoumarin to fluorescein (CCF2-FA). The enzyme (NDM-1, IMP-1 or VIM-1) and the substrate were diluted in 100 mM KH2PO4 buffer (pH 7) containing 0.005% Tween-20 and 10 μM ZnSO4. In the assay, the final concentration of enzyme was 1 pM, 2 pM and 30 pM for NDM-1, IMP-1 and VIM-1, respectively, and the final concentration of CCF2-FA was 1.25 μM. The test inhibitor was dissolved in dimethylsulfoxide and diluted 1:50 in the assay, resulting in a final concentration range of 20 μM to 0.00063 μM. In a 384-well microplate, the test inhibitor was incubated with the metallo-β-lactamase enzyme and the substrate for 2 hours at 25° C. Fluorescence at 460 nm following excitation at 405 nm was measured. The IC50 value was determined from semi-logarithmic plots of enzyme inhibition versus inhibitor concentration, with a curve generated using a 4-parameter fit.

[1] = test system: P. aeruginosa MB9798 (efflux WT, IMP-1); assay: Efflux: concentration of MBL inhibitor restoring susceptibility to imipenem (MITC95), efflux+ strain; assay type: cell-based, Pseudomonas aeruginosa; conditions: imipenem at 2 μg/mL in the presence of a class A, C, D serine β-lactamase inhibitor closely related to relebactam
From the text: (§2) In order to assess the contribution of efflux to lack of whole cell inhibition of metallo-beta-lactamase inhibitors of formula I, tool strains were constructed. The strain background is Pseudomonas aeruginosa PAO1. A wild-type (MB5919) and an isogenic strain in which multiple efflux pumps have been disrupted genetically were used. The MBL IMP-1, obtained from a clinical isolate was introduced into the strain pair by the following process:
(§3) Plasmid DNA (encoding IMP-1) was extracted from CL 5673 (IMP-1, P. aeruginosa clinical strain) by standard techniques. The plasmid DNA was transformed into parental MB5919 (oprD+, efflux+, inducible AmpC) and MB5890 (oprD+, efflux−, inducible AmpC) isogenic strains by electroporation. These transformed strains were plated onto cation-adjusted Muller-Hinton agar plates containing ceftazidime at 32 μg/mL (MB5919) and 16 μg/mL (MB5890) to select for those cells in which the IMP-1-expressing plasmid was introduced successfully, resulting in resistance to ceftazidime. Agarose-gel electrophoresis of PCR product for IMP-1 from the successful transformants was used to compare to control and to the original strain from which the plasmid was obtained, confirming transfer of the IMP-1 gene (data not shown).
(§4) The strain set was then used as a pair to determine the effect of metallo-β-lactamase inhibitors of Formula Ion the MIC of imipenem and/or ceftazidime. A fixed concentration of antibiotic is included in standard microbroth MIC tests, usually at the CLSI breakpoint concentration. A fixed amount of a class A/C beta-lactamase inhibitor is also included to inhibit the resident Pseudomonas AmpC enzyme. A serial titration of the metallo-β-lactamase inhibitor was included and the concentration of metallo-β-lactamase inhibitor which restores susceptibility of the strain to the included antibiotic was recorded. That concentration of metallo-β-lactamase inhibitor was then compared between the two strains to determine the fold difference between the efflux+(MB9798) and efflux−(MB9799) strains, which indicates n the extent to which the MBLi is subject to efflux.

VIM-1 = VIM-1 (Pseudomonas aeruginosa, UniProt A0A0F7KYQ8); assay: Enzyme activity: determination of IC50, fluorescence assay with CCF2-FA substrate (VIM-1); assay type: biochemical; conditions: 30 pM enzyme, 1.25 μM CCF2-FA, 2 hours at 25° C.; read-out: VIM1 IC50
Protocol: as §1

[2] = test system: P. aeruginosa MB9799 (efflux mutant, IMP-1); assay: Efflux: concentration of MBL inhibitor restoring susceptibility to imipenem (MITC95), efflux− strain; assay type: cell-based, Pseudomonas aeruginosa; conditions: imipenem at 2 μg/mL in the presence of a class A, C, D serine β-lactamase inhibitor closely related to relebactam
From the text: as §2, §3, §4

NDM-1 = NDM-1 (Klebsiella pneumoniae, UniProt C7C422); assay: Enzyme activity: determination of IC50, fluorescence assay with CCF2-FA substrate (NDM-1); assay type: biochemical; conditions: 1 pM enzyme, 1.25 μM CCF2-FA, 2 hours at 25° C.; read-out: NDM1 IC50
NDM-1, sequence (C7C422 29-270, looked up, species assumed): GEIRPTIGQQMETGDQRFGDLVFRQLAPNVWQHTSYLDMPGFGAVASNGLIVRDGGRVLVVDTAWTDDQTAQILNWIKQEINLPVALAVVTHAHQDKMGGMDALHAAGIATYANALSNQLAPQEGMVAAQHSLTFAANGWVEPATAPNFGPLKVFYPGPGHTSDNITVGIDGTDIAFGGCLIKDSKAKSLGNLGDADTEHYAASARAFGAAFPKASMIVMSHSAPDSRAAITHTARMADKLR
Protocol: as §1

[3] = test system: Escherichia coli expressing NDM-1 (CLB30016); assay: Antibiotic potentiation activity: synergistic concentration (MITC95) with imipenem; assay type: cell-based; conditions: imipenem 1 μg/mL; lowest concentration inhibiting 95% of growth; 35° C., 22-24 hours
Protocol: (§5) The bacterial strains tested included the clinical strains Escherichia coli expressing NDM-1 (CLB30005, CLB30016), Serratia marcescens expressing IMP-1 (CL5741), and Klebsiella pneumoniae expressing VIM-1 (IHMA599644). Inhibitor activity was measured in the presence and absence of imipenem in a 384-well microplate.
(§6) The clinical strains CLB30016, CL5741 and IHMA599644 were grown on trypticase soy agar containing 5% sheep's blood. The bacteria on agar plates were incubated at 35° C. with humidity overnight. The following day, individual colonies from each clinical strain were picked and resuspended in 5 mL saline to attain an OD600 of 0.14, 0.11, 0.15 and 0.13, for CLB30016, CL5741 and IHMA599644, respectively. These were further diluted 1:100 into 1.1× CAMHB and used to inoculate the test wells as described below.
(§7) Imipenem in 10 mM 3-(N-morpholino)propanesulfonic acid (MOPS, pH 7) was stored in single use aliquots at −80° C. […] On the day of the assay, 4 μl of antibiotic was added to 45 μl of bacteria followed by 1 μl of test compound and mixed by pipetting and with an orbital shaker. The concentration of antibiotic used in the assay was 1 μg/mL. Microplates were covered and incubated at 35° C. for 22 hours to 24 hours. At the end of the incubation, absorbance was determined using a spectrophotometer. The synergistic concentration of MBLI was determined by identifying the lowest concentration of test compound in the presence of a given concentration of antibiotic that was required to inhibit 95% of the growth of the bacteria. The results for Examples 1-209 are reported in Table 1, expressed as the concentration of compound that potentiated the action of antibiotic (imipenem) affecting 95% inhibition of bacterial growth (MITC95).

[4] = test system: Serratia marcescens expressing IMP-1 (CL5741); assay: as above; assay type: cell-based; conditions: imipenem 1 μg/mL; lowest concentration inhibiting 95% of growth; 35° C., 22-24 hours
Protocol: as §5, §6, §7

[5] = test system: Klebsiella pneumoniae expressing VIM-1 (IHMA599644); assay: as above; assay type: cell-based; conditions: imipenem 1 μg/mL; lowest concentration inhibiting 95% of growth; 35° C., 22-24 hours
Protocol: as §5, §6, §7

IMP-1, sequence (P52699 19-246, looked up, species assumed): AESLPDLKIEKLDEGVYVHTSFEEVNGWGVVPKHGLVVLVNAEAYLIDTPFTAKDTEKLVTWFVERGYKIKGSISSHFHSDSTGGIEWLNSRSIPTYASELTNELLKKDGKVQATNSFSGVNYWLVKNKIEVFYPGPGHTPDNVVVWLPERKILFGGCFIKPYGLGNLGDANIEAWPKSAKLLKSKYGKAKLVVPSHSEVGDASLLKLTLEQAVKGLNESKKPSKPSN

Compound | IC50 (VIM-2) [nM] | IC50 (IMP-1) [nM] | MB9798 MITC95 P. aeruginosa Efflux WT [1] [µM] | IC50 (VIM-1) [nM] | MB9799 MITC95 P. aeruginosa Efflux Mutant [2] [µM] | IC50 (NDM-1) [nM] | CLB30016 E.coli MITC95 NDM [3] [µM] | CL5741 S.marcescens MITC95 uM IMP [4] [µM] | IHMA599644 K.pneumoniae MITC95 uM VIM [5] [µM]
NS(=O)(=O)c1c(S(=O)(=O)N[C@@H]2CCNC2)ccc(N2CCCn3ncnc32)c1-c1nnn[nH]1 [Example 8, (R)-4-(6,7-dihydro-[1,2,4]triazolo[1,5-a]pyrimidin-4(5H)-yl)-N1-(pyrrolidin-3-yl)-3-(1H-tetrazol-5-yl)benzene-1,2-disulfonamide] | 1.09 | 6.63 | 3.13 | 0.2 | 6.25 | 0.47 | 3.13 | 6.25 | 12.50
NS(=O)(=O)c1c(S(=O)(=O)N[C@@H]2CCNC2)ccc(N2CCn3ccnc3C2)c1-c1nnn[nH]1 [Example 9, (R)-4-(5,6-dihydroimidazo[1,2-a]pyrazin-7(8H)-yl)-N1-(pyrrolidin-3-yl)-3-(1H-tetrazol-5-yl)benzene-12-disulfonamide] | 0.49 | 2.17 | 1.56 | 0.1 | 0.78 | 0.48 | 0.39 | 0.20 | 1.56
NCC(CN)NS(=O)(=O)c1ccc(N2CCn3ccnc3C2)c(-c2nn[nH]n2)c1S(N)(=O)=O [Example 10, N1-(1,3-diaminopropan-2-yl)-4-(5,6-dihydroimidazo[1,2-a]pyrazin-7(8H)-yl)-3-(2H-tetrazol-5-yl)benzene-1,2-disulfonamide] | 0.99 | 2.96 | 3.13 | 0.25 | 1.56 | 1.17 | 0.10 | 0.39 | 1.56
NCC(CN)NS(=O)(=O)c1ccc(N2CCCn3ccnc32)c(-c2nn[nH]n2)c1S(N)(=O)=O [Example 11, N1-(1,3-diaminopropan-2-yl)-4-(6,7-dihydroimidazo[1,2-a]pyrimidin-8(5H)-yl)-3-(2H-tetrazol-5-yl)benzene-1,2-disulfonamide] | 3.71 | 4.55 | 2.34 | 1.26 | 1.17 | 1.95 | 0.20 | 0.78 | 1.56
NCCNS(=O)(=O)c1ccc(N2CCCn3ccnc32)c(-c2nn[nH]n2)c1S(N)(=O)=O [Example 12, N1-(2-aminoethyl)-4-(6,7-dihydroimidazo[1,2-a]pyrimidin-8(5H)-yl)-3-(2H-tetrazol-5-yl)benzene-1,2-disulfonamide] | 2.17 | 4.69 | 0.78 | 0.6 | 0.20 | 1.58 | 0.05 | 0.20 | 0.39
NS(=O)(=O)c1c(S(=O)(=O)N[C@@H]2CCNC2)ccc(N2CCCn3ccnc32)c1-c1nnn[nH]1 [Example 13, (R)-4-(6,7-dihydroimidazo[1,2-a]pyrimidin-8(5H)-yl)-N1-(pyrrolidin-3-yl)-3-(1H-tetrazol-5-yl)benzene-1,2-disulfonamide] | 2.16 | 9.7 | 1.56 | 0.39 | 0.78 | 0.77 | 0.20 | 0.39 | 0.78
C[C@H](N)CNS(=O)(=O)c1ccc(N2CCCn3ccnc32)c(-c2nn[nH]n2)c1S(N)(=O)=O [Example 14, (S)-N1-(2-aminopropyl)-4-(6,7-dihydroimidazo[1,2-a]pyrimidin-8(5H)-yl)-3-(2H-tetrazol-5-yl)benzene-1,2-disulfonamide] | 2.6 | 6.32 | 3.13 | 0.97 | 0.78 | 1.61 | 0.10 | 0.39 | 1.56
NC[C@H](CO)NS(=O)(=O)c1ccc(N2CCCn3ccnc32)c(-c2nnn[nH]2)c1S(N)(=O)=O [Example 15, (R)-N1-(1-amino-3-hydroxypropan-2-yl)-4-(6,7-dihydroimidazo[1,2-a]pyrimidin-8(5H)-yl)-3-(1H-tetrazol-5-yl)benzene-1,2-disulfonamide] | 2.66 | 8.9 | 3.13 | 1 | 0.78 | 2.35 | 0.20 | 0.39 | 1.56
